The target in the test is T1, PRMT5-MEP50 enzyme (Homo sapiens, UniProt O14744).
T1 construct: One virus expresses full length human PRMT5 with Flag-tag at N-terminus; Flag (N); purchased Charles River (Argenta); host or cells: insect cells (Sf9), baculovirus co-infection
T1 sequence (O14744 whole entry): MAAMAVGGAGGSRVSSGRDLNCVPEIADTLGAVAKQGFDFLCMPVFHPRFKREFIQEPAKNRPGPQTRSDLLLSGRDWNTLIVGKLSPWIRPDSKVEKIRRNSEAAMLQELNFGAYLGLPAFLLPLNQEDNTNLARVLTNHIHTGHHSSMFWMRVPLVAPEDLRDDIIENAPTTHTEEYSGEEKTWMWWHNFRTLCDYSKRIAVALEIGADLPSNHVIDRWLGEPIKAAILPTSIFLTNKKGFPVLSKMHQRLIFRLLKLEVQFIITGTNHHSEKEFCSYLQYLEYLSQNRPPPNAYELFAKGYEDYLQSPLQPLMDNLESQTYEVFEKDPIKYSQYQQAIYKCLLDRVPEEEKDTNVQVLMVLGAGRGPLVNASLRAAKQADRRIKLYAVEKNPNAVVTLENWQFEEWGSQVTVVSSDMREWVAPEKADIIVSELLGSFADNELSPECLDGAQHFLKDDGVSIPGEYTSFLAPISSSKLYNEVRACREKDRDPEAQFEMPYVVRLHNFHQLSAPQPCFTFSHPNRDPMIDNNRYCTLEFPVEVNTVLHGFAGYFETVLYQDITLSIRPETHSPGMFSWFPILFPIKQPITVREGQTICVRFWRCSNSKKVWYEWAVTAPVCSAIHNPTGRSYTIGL
T1 sequence (Q9BQA1 whole entry partner): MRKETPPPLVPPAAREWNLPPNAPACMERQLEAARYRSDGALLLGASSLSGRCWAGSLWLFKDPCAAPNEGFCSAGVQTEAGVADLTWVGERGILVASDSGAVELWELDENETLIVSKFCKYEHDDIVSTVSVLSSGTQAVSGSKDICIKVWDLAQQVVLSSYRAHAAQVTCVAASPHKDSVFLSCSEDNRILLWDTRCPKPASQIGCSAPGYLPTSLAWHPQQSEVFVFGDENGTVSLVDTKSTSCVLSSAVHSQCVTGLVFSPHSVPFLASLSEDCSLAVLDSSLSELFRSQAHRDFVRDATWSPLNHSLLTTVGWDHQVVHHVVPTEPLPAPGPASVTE
The test can be described thus: High throughput mass spectrometer assay of PRMT5-MEP50 enzyme activity (SAH formation). The settings on record: averaged values; inhibition of SAH formation; 1 μM SAM, 0.3 μM H2A, 1.25 nM enzyme, 30° C. The test is classed as biochemical. An excerpt: Reagents. PRMT5-MEP50 enzyme was purchased from Charles River (Argenta). The enzyme complex was produced in insect cells (Sf9) infected simultaneously with two baculoviruses. One virus expresses full length human PRMT5 with Flag-tag at N-terminus, the second virus expresses full length MEP50 with His6-TEV cleavage at N-terminus. The protein was affinity purified using anti-Flag (M2) beads eluted with 3×FLAG peptide, followed by His-Select eluted with 0.5M imidazole. Eluted protein was then dialysed against tris-buffered saline (TBS) (pH 8.0) containing 20% glycerol and 3 mM dithiothreitol (DTT).
Full-length untagged human recombinant histone H2A (residues 1-130, Genbank Accession #NM_021052, MW=14.1 kDa) expressed in E. coli was purchased from Reaction Biology Corporation, Cat #HMT-11-146. Reagents used for making reaction buffer or stopping reaction were purchased including Tris base (Sigma Cat #T-1503), NaCl (Sigma Cat #RGF-3270), MgCl2 (Sigma Cat #M0250), DTT (Invitrogen Cat #15508-013) and Formic Acid (Riedel deHaen, Cat #33015)
High Throughput Mass Spectrometer Assay PRMT5 catalyzes the sequential methylations of the terminal nitrogen atoms on the guanidine groups of arginine residues within proteins using co-substrate S-adenosyl-L-methionine (AdoMet, SAM), forming mono-methyl (MMA), symmetric-dimethyl arginine (sDMA) and S-adenosyl-L-homocysteine (AdoHcy, SAH). The enzyme activity was determined by following the product SAH formation using high throughput mass spectrometry (Agilent Rapidfire 300 System coupled to a Sciex 4000 series QTrap® triple-quad MS/MS). The reaction buffer was 20 mM Tris-HCl, pH 8.5, 50 mM NaCl. 5 mM MgCl2 and 1 mM DTT. The reaction activity was stopped using 1% formic acid (final concentration).
Inhibition Studies. The IC50 Studies were performed using eleven point dosing series made for each compound by serially diluted 1:2 in dimethyl sulfoxide (DMSO), with point 12 being a DMSO control. Compounds were first spotted to plates, and followed by addition of 2 μM SAM and 0.6 μM H2A (histone H2A) solution mixture. The same volume of enzyme solution was added to initiate the enzymatic reactions. The final concentrations of the reaction are at 1 μM SAM, 0.3 μM H2A and 1.25 nM enzyme. The reaction was incubated at 30° C. for 60 minutes (min) when 10 nM enzyme was used and for 120 min when 1.25 nM enzyme was used. Subsequently, the reaction was quenched by addition of formic acid to a final concentration of 1%. The inhibitions of SAH formation in the presence of compounds were calculated as a percentage of the control relative to the uninhibited reaction as a function of inhibitor concentration. The data were fit as follows: Y=Bottom+(Top−Bottom)/(1+10^((log IC50−X)*h))
where IC50 is the inhibitor concentration (same unit as X) at 50% inhibition and h is the Hill slope. Y is percent of inhibition, X is log of compound concentration. Bottom and Top are the plateaus in same units as Y.
The pIC50 values in the Table below are averaged values (Co. No. means compound number: n.d. means not determined)
`Cl.Nc1ncnc2c1ccn2[C@@H]1CC2(CC(Cn3c(Cl)cccc3=O)C2)[C@@H](O)[C@H]1O` (mixture of isomers) [Compound 32]: the negative logarithm of the IC50 (pIC50) was 5.69.
The molecule `Nc1ncnc2c1ccn2[C@@H]1C[C@]2(C[C@H](CO)C2)[C@@H](O)[C@H]1O` (single isomer, unassigned) [Compound 35] gave an IC50 of 933 nM.
In the case of `Nc1ncnc2c1ccn2[C@@H]1C[C@]2(C[C@@H](CO)C2)[C@@H](O)[C@H]1O` (single isomer, unassigned) [Compound 36], half-maximal inhibition (IC50) required 1410 nM.
`Nc1ncnc2c1ncn2[C@@H]1O[C@]2(C[C@@H](OCc3ccccc3)C2)[C@@H](O)[C@H]1O` [Compound 1] showed an IC50 of 3020 nM.
Still for that read-out and setting: the value for `Nc1ccc2ccc(O[C@H]3C[C@]4(C3)O[C@@H](n3cnc5c(N)ncnc53)[C@H](O)[C@@H]4O)cc2n1` [Compound 2] was 30.9 nM; that for `Nc1ncnc2c1ncn2[C@@H]1O[C@]2(C[C@@H](Oc3ccc4ccc(Cl)nc4c3)C2)[C@@H](O)[C@H]1O` [Compound 3] was 8130 nM.
The same measure, in the same setting: the result for `Nc1ncnc2c1ncn2[C@@H]1O[C@]2(C[C@@H](Oc3ccc4cc(Br)cnc4c3)C2)[C@@H](O)[C@H]1O` [Compound 4] reads 3020 nM.
Still for that read-out and setting: the value for `Nc1ccc2ccc(O[C@H]3C[C@@]4(C3)O[C@@H](n3cnc5c(N)ncnc53)[C@H](O)[C@@H]4O)cc2n1` [Compound 5] was 9.33 nM; that for `Nc1ncnc2c1ncn2[C@@H]1O[C@]2(C[C@H](Oc3ccc4cc(Br)cnc4c3)C2)[C@@H](O)[C@H]1O` [Compound 6] was 120 nM; that for `Nc1ncnc2c1ncn2[C@@H]1O[C@]2(C[C@@H](O)C2)[C@@H](O)[C@H]1O` [Compound 7] was 5010 nM.
For the molecule `Nc1ncnc2c1ncn2[C@@H]1O[C@]2(C[C@H](O)C2)[C@@H](O)[C@H]1O` [Compound 8], the IC50 is 3550 nM.
Still for that read-out and setting: the result for `Nc1ncnc2c1ncn2[C@@H]1O[C@]2(C[C@H](Oc3ccc4cc(Cl)cnc4c3)C2)[C@@H](O)[C@H]1O` [Compound 9] reads 257 nM; that for `Nc1ncnc2c1ccn2[C@@H]1C[C@]2(C[C@H](Oc3ccc4cccnc4c3)C2)[C@@H](O)[C@H]1O` [Compound 11], 91.2 nM; that for `Nc1ncnc2c1ccn2[C@@H]1C[C@]2(C[C@H](Oc3ccc4cc(Cl)cnc4c3)C2)[C@@H](O)[C@H]1O` [Compound 12], 2400 nM.
The same measure, in the same setting: the result for `Nc1ncnc2c1ccn2[C@@H]1C[C@]2(C[C@@H](Oc3ccc4cc(Cl)cnc4c3)C2)[C@@H](O)[C@H]1O` [Compound 13] reads 646 nM; that for `Nc1ncnc2c1ccn2[C@@H]1C[C@]2(C[C@H](Cc3ccc4cc(Cl)cnc4c3)C2)[C@@H](O)[C@H]1O` [Compound 14], 2000 nM; that for `Nc1ncnc2c1ccn2[C@@H]1C[C@]2(C[C@@H](Cc3ccc4cc(Cl)cnc4c3)C2)[C@@H](O)[C@H]1O` [Compound 15], 1100 nM.
Molecule `Nc1ncnc2c1ccn2[C@@H]1C[C@]2(C[C@H](Cc3ccc4scnc4c3)C2)[C@@H](O)[C@H]1O` [Compound 16] showed an IC50 of 490 nM.
`Nc1ncnc2c1ccn2[C@@H]1C[C@]2(C[C@@H](Cc3ccc4scnc4c3)C2)[C@@H](O)[C@H]1O` [Compound 17] had an IC50 of 389 nM.
The molecule `Nc1nc2cc(C[C@H]3C[C@]4(C[C@@H](n5ccc6c(N)ncnc65)[C@H](O)[C@@H]4O)C3)ccc2s1` [Compound 18] showed an IC50 of 35.5 nM.
Regarding `Nc1nc2cc(C[C@H]3C[C@@]4(C[C@@H](n5ccc6c(N)ncnc65)[C@H](O)[C@@H]4O)C3)ccc2s1` [Compound 19], half-maximal inhibition (IC50) was put at 132 nM.
`Nc1ncnc2c1ccn2[C@@H]1C[C@]2(C[C@H](Cc3ccc4ncsc4c3)C2)[C@@H](O)[C@H]1O` [Compound 20] had an IC50 of 490 nM.
On the same count and under the same terms, the result for `Nc1ncnc2c1ccn2[C@@H]1C[C@]2(C[C@@H](Cc3ccc4ncsc4c3)C2)[C@@H](O)[C@H]1O` [Compound 21] reads 145 nM; that for `Nc1nc2ccc(C[C@H]3C[C@]4(C[C@@H](n5ccc6c(N)ncnc65)[C@H](O)[C@@H]4O)C3)cc2s1` [Compound 22], 1580 nM.
On the same count and under the same terms, the value for `Nc1nc2ccc(C[C@H]3C[C@@]4(C[C@@H](n5ccc6c(N)ncnc65)[C@H](O)[C@@H]4O)C3)cc2s1` [Compound 23] was 295 nM; that for `Nc1ncnc2c1ccn2[C@@H]1C[C@]2(C[C@H](Cc3ccn4ccnc4c3)C2)[C@@H](O)[C@H]1O` [Compound 24] was 9.12 nM.
The same measure, in the same setting: the result for `Nc1ncnc2c1ccn2[C@@H]1C[C@]2(C[C@@H](Cc3ccn4ccnc4c3)C2)[C@@H](O)[C@H]1O` [Compound 25] reads 10.2 nM.
In turn, `Nc1ncnc2c1ccn2[C@@H]1C[C@]2(C[C@H](Cc3ccccn3)C2)[C@@H](O)[C@H]1O` [Compound 26] showed an IC50 of 2450 nM.
`Nc1ncnc2c1ccn2[C@@H]1C[C@]2(C[C@@H](Cc3ccccn3)C2)[C@@H](O)[C@H]1O` [Compound 27] had an IC50 of 5620 nM.
Same read-out and setting: the value for `Nc1ncnc2c1ccn2[C@@H]1C[C@]2(C[C@H](Cc3cccnc3)C2)[C@@H](O)[C@H]1O` [Compound 28] was 145 nM; that for `Nc1ncnc2c1ccn2[C@@H]1C[C@]2(C[C@@H](Cc3cccnc3)C2)[C@@H](O)[C@H]1O` [Compound 29] was 170 nM; that for `Nc1ncnc2c1ccn2[C@@H]1C[C@]2(C[C@H](COc3cccc(Cl)n3)C2)[C@@H](O)[C@H]1O` [Compound 30] was 1620 nM.
Molecule `Nc1ncnc2c1ccn2[C@@H]1C[C@]2(C[C@@H](COc3cccc(Cl)n3)C2)[C@@H](O)[C@H]1O` [Compound 31] had an IC50 of 3470 nM.
Consider `Nc1nc2cc(C[C@H]3C[C@]4(C[C@@H](n5ccc6c(N)ncnc65)[C@H](O)[C@@H]4O)C3)ccc2cc1Br` [Compound 33], for which 245 nM corresponded to half-maximal inhibition (IC50).
Still for that read-out and setting: the value for `Nc1ncnc2c1ncn2[C@@H]1O[C@]2(C[C@H](Cc3ccc4cc(Cl)cnc4c3)C2)[C@@H](O)[C@H]1O` [Compound 44] was 4570 nM; that for `Nc1ncnc2c1ncn2[C@@H]1O[C@]2(C[C@@H](Cc3ccc4cc(Cl)cnc4c3)C2)[C@@H](O)[C@H]1O` [Compound 45] was 5500 nM.

The record behind these values is patent publication US11702441B2, “Spirobicyclic analogues” (Janssen Pharmaceutica NV, priority 2017, dated 2023).
